Data reported in patent US9988400B2 (Genentech, Inc., priority 2013, dated 2018).

Each compound was assayed against T1, HEK cells stably transfected with tetracycline inducible hNR1 and hNR2A (Homo sapiens, UniProt Q05586+Q12879) (assay: Assay 1: Cell-Based Assay, cytosolic calcium response to positive allosteric modulators (with 30 μM glycine and 300 nM L-glutamate, EC30)). Conditions: Table 3; cytosolic calcium response, with 30 μM glycine and 300 nM L-glutamate (EC30); — = no plateau was reached.
T1 construct: expressed in transfected cells; host or cells: HEK cells, stably transfected, tetracycline/doxycycline inducible
T1 sequence (Q12879 23-1464, other chains not shown): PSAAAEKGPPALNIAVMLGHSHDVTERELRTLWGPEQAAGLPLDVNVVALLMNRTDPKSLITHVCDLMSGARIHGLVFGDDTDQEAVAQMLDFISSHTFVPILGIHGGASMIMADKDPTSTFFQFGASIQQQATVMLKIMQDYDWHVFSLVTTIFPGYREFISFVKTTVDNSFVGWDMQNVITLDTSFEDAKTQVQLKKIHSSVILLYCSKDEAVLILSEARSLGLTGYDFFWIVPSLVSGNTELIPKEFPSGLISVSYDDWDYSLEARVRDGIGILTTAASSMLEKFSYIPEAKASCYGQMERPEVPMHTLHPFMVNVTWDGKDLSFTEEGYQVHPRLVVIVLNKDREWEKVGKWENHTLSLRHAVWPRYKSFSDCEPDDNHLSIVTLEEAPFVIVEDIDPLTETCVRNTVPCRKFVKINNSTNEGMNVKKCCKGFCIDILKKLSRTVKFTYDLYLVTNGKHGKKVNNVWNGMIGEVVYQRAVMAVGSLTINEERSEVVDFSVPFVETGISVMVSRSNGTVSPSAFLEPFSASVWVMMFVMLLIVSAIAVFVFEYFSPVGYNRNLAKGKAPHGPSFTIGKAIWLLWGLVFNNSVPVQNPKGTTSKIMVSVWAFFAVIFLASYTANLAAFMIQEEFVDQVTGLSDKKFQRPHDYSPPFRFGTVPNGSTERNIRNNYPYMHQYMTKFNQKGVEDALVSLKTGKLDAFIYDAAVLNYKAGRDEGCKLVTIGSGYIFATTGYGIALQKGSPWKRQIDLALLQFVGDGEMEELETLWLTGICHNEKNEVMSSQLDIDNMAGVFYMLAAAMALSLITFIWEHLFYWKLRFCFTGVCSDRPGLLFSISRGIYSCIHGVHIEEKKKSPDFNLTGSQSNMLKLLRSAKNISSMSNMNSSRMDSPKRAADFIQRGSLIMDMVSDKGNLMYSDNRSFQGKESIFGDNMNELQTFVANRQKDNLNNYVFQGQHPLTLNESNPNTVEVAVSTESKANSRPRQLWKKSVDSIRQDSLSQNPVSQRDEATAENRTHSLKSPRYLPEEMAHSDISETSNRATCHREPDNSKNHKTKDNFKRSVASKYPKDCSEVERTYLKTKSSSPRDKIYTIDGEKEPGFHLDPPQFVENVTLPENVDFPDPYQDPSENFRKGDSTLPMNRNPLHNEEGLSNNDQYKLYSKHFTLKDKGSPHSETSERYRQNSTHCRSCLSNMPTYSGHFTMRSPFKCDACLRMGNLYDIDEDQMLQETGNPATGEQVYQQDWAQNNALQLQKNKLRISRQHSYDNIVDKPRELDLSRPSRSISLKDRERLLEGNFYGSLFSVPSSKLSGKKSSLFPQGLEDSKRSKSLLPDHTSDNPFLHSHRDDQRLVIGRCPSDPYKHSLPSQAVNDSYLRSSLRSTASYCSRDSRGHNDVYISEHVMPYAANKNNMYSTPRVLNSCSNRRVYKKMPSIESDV
Procedure, shortened: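 Cells induced 24 h with 7.5 μg mL^−1 doxycycline plus 500 μM (+)-ketamine, loaded 60 min at 37 °C with calcium dye in Mg-free HBSS (1.8 mM Ca, probenecid, 10 μM (+)-ketamine, pH 7.15). Peak RFU over 5 min after compound addition, scaled to 100 μM L-glutamate (100%) and 0 μM (0%); four-parameter Hill fit for EC50, max % if no plateau.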
Compound `Cc1sc2nc(Oc3cccc(C(F)(F)F)c3F)cc(=O)n2c1C1CC1C` (stereo not drawn) [compound 86, 7-[2-fluoro-3-(trifluoromethyl)phenoxy]-2-methyl-3-(2-methylcyclopropyl)thiazolo[3,2-a]pyrimidin-5-one] has an EC50 of 10.5 µM. `CCNC(=O)c1c(C(C)C)sc2nc(Cc3cccc(C(F)(F)F)c3F)cc(=O)n12` [compound 87, N-ethyl-7-[[2-fluoro-3-(trifluoromethyl)phenyl]methyl]-2-isopropyl-5-oxo-thiazolo[3,2-a]pyrimidine-3-carboxamide] was tested, and the EC50 was 42 µM. `N#Cc1cccc(Cc2cc(=O)n3c(C4CC4C(F)(F)F)c(C(F)(F)F)sc3n2)c1F` (stereo not drawn) [compound 88, 2-fluoro-3-[[5-oxo-2-(trifluoromethyl)-3-[2-(trifluoromethyl)cyclopropyl]thiazolo[3,2-a]pyrimidin-7-yl]methyl]benzonitrile] gave an EC50 of 3.7 µM. With `O=c1cc(Cn2nc(C(F)(F)F)cc2Cl)nc2sc3c(n12)CCC3` [compound 89] the EC50 was 9.04 µM. `O=c1cc(Cn2nc(Cl)cc2C(F)(F)F)nc2sc3c(n12)CCC3` [compound 90] was tested, and the EC50 was 1.22 µM. In the case of `CCNC(=O)c1c(OC)sc2nc(Cc3cccc(C(F)(F)F)c3F)cc(=O)n12` [compound 91, N-Ethyl-7-[[2-fluoro-3-(trifluoromethyl)phenyl]methyl]-2-methoxy-5-oxo-thiazolo[3,2-a]pyrimidine-3-carboxamide], the EC50 is reported as 1.03 µM. `O=c1cc(Cc2cccc(C(F)(F)F)c2F)nc2sc3c(n12)C(CO)CC3` (stereo not drawn) [compound 92] showed an EC50 of 47.1 µM. `CCc1sc2nc(Cc3cccc(C(F)(F)F)c3F)cc(=O)n2c1C(=O)NC` [compound 93, 2-ethyl-7-[[2-fluoro-3-(trifluoromethyl)phenyl]methyl]-N-methyl-5-oxo-thiazolo[3,2-a]pyrimidine-3-carboxamide] gave an EC50 of 1.83 µM. In the case of `N#CC1CC1c1c(C(F)(F)F)sc2nc(Cc3cccc(C(F)(F)F)c3F)cc(=O)n12` (stereo not drawn) [compound 94, 2-[7-[[2-fluoro-3-(trifluoromethyl)phenyl]methyl]-5-oxo-2-(trifluoromethyl)thiazolo[3,2-a]pyrimidin-3-yl]cyclopropanecarbonitrile], the EC50 is reported as 2.08 µM. `O=c1cc(Cn2nc(C(F)(F)F)cc2C2CC2)nc2sc3c(n12)C(CO)CC3` (stereo not drawn) [compound 95] gave an EC50 of 9.2 µM. Work on `CNC(=O)c1c(C)sc2nc(Cn3nc(C(F)(F)F)cc3Cl)cc(=O)n12` [compound 96, 7-[[5-chloro-3-(trifluoromethyl)pyrazol-1-yl]methyl]-N,2-dimethyl-5-oxo-thiazolo[3,2-a]pyrimidine-3-carboxamide] yielded an EC50 of 1.21 µM. `CNC(=O)c1c(C)sc2nc(Cn3nc(Cl)cc3C(F)(F)F)cc(=O)n12` [compound 97, 7-[[3-chloro-5-(trifluoromethyl)pyrazol-1-yl]methyl]-N,2-dimethyl-5-oxo-thiazolo[3,2-a]pyrimidine-3-carboxamide] gave an EC50 of 5.11 µM. With `CNC(=O)Cc1c(C)sc2nc(Cn3nc(C(F)(F)F)cc3Cl)cc(=O)n12` [compound 98, 2-[7-[[5-chloro-3-(trifluoromethyl)pyrazol-1-yl]methyl]-2-methyl-5-oxo-thiazolo[3,2-a]pyrimidin-3-yl]-N-methyl-acetamide] the EC50 was 1.57 µM. In the case of `CNC(=O)Cc1c(C)sc2nc(Cn3nc(Cl)cc3C(F)(F)F)cc(=O)n12` [compound 99, 2-[7-[[3-chloro-5-(trifluoromethyl)pyrazol-1-yl]methyl]-2-methyl-5-oxo-thiazolo[3,2-a]pyrimidin-3-yl]-N-methyl-acetamide], the EC50 is reported as 3.69 µM. `Cc1sc2nc(Cc3cccc(C(F)(F)F)c3F)cc(=O)n2c1C1CC1O` (stereo not drawn) [compound 100, 7-[[2-fluoro-3-(trifluoromethyl)phenyl]methyl]-3-(2-hydroxycyclopropyl)-2-methyl-thiazolo[3,2-a]pyrimidin-5-one] was tested, and the EC50 was 11.6 µM. `Cc1sc2nc(Oc3cccc(C(F)(F)F)c3F)cc(=O)n2c1C1CC1C#N` (stereo not drawn) [compound 101, 2-[7-[2-fluoro-3-(trifluoromethyl)phenoxy]-2-methyl-5-oxo-thiazolo[3,2-a]pyrimidin-3-yl]cyclopropanecarbonitrile] gave an EC50 of 3.71 µM. With `Cc1sc2nc(Cn3nc(C(F)(F)F)cc3Cl)cc(=O)n2c1C1CC1CO` (stereo not drawn) [compound 102, 7-[[5-chloro-3-(trifluoromethyl)pyrazol-1-yl]methyl]-3-[2-(hydroxymethyl)cyclopropyl]-2-methyl-thiazolo[3,2-a]pyrimidin-5-one] the EC50 was 0.0547 µM. `Cc1sc2nc(Cn3nc(Cl)cc3C(F)(F)F)cc(=O)n2c1C1CC1CO` (stereo not drawn) [compound 103, 7-[[3-chloro-5-(trifluoromethyl)pyrazol-1-yl]methyl]-3-[2-(hydroxymethyl)cyclopropyl]-2-methyl-thiazolo[3,2-a]pyrimidin-5-one] showed an EC50 of 0.251 µM. Compound `Cc1sc2nc(Cn3nc(C(F)(F)F)cc3Cl)cc(=O)n2c1C1CC1C#N` (stereo not drawn) [compound 104, 2-[7-[[5-chloro-3-(trifluoromethyl)pyrazol-1-yl]methyl]-2-methyl-5-oxo-thiazolo[3,2-a]pyrimidin-3-yl]cyclopropanecarbonitrile] has an EC50 of 0.0341 µM. `CCNC(=O)c1c(C#N)sc2nc(Cc3cccc(C(F)(F)F)c3F)cc(=O)n12` [compound 105, 2-Cyano-N-ethyl-7-[[2-fluoro-3-(trifluoromethyl)phenyl]methyl]-5-oxo-thiazolo[3,2-a]pyrimidine-3-carboxamide] showed an EC50 of 3.9 µM. For `Cc1sc2nc(Cc3cccc(C(F)(F)F)c3F)cc(=O)n2c1C(=O)NC(C)C` [compound 106, 7-[[2-fluoro-3-(trifluoromethyl)phenyl]methyl]-N-isopropyl-2-methyl-5-oxo-thiazolo[3,2-a]pyrimidine-3-carboxamide], the EC50 was 3.4 µM. `Cc1sc2nc(Oc3cccc(C#N)c3F)cc(=O)n2c1C1CC1C` (stereo not drawn) [compound 107, 2-fluoro-3-[2-methyl-3-(2-methylcyclopropyl)-5-oxo-thiazolo[3,2-a]pyrimidin-7-yl]oxy-benzonitrile] showed an EC50 of 0.994 µM. In the case of `Cc1sc2nc(Cn3nc(C(F)(F)F)cc3Cl)cc(=O)n2c1C(C)(C)O` [compound 108, 7-[[5-chloro-3-(trifluoromethyl)pyrazol-1-yl]methyl]-3-(1-hydroxy-1-methyl-ethyl)-2-methyl-thiazolo[3,2-a]pyrimidin-5-one], the EC50 is reported as 0.247 µM. `Cc1sc2nc(Cn3nc(Cl)cc3C(F)(F)F)cc(=O)n2c1C(C)(C)O` [compound 109, 7-[[3-chloro-5-(trifluoromethyl)pyrazol-1-yl]methyl]-3-(1-hydroxy-1-methyl-ethyl)-2-methyl-thiazolo[3,2-a]pyrimidin-5-one] was tested, and the EC50 was 0.734 µM. `Cc1sc2nc(Cn3nc(C(F)(F)F)cc3Cl)cc(=O)n2c1C(C)O` (stereo not drawn) [compound 110, 7-[[5-chloro-3-(trifluoromethyl)pyrazol-1-yl]methyl]-3-(1-hydroxyethyl)-2-methyl-thiazolo[3,2-a]pyrimidin-5-one] showed an EC50 of 1.88 µM. Compound `Cc1sc2nc(Cn3nc(Cl)cc3C(F)(F)F)cc(=O)n2c1C(C)O` (stereo not drawn) [compound 111, 7-[[3-chloro-5-(trifluoromethyl)pyrazol-1-yl]methyl]-3-(1-hydroxyethyl)-2-methyl-thiazolo[3,2-a]pyrimidin-5-one] has an EC50 of 6 µM. `CCC(C)NC(=O)c1c(C)sc2nc(Cc3cccc(C(F)(F)F)c3F)cc(=O)n12` (stereo not drawn) [compound 112, 7-[[2-fluoro-3-(trifluoromethyl)phenyl]methyl]-2-methyl-5-oxo-N-sec-butyl-thiazolo[3,2-a]pyrimidine-3-carboxamide] was tested, and the EC50 was 0.825 µM. Compound `Cc1sc2nc(Cc3cccc(C#N)c3F)cc(=O)n2c1N1CCC1` [compound 113, 3-[[3-(azetidin-1-yl)-2-methyl-5-oxo-thiazolo[3,2-a]pyrimidin-7-yl]methyl]-2-fluoro-benzonitrile] has an EC50 of 2.37 µM. In the case of `Cc1sc2nc(Cn3nc(C(F)(F)F)cc3Cl)cc(=O)n2c1C#N` [compound 114, 7-[[5-chloro-3-(trifluoromethyl)pyrazol-1-yl]methyl]-2-methyl-5-oxo-thiazolo[3,2-a]pyrimidine-3-carbonitrile], the EC50 is reported as 1.34 µM. For `Cc1sc2nc(Cn3nc(Cl)cc3C(F)(F)F)cc(=O)n2c1C#N` [compound 115, 7-[[3-chloro-5-(trifluoromethyl)pyrazol-1-yl]methyl]-2-methyl-5-oxo-thiazolo[3,2-a]pyrimidine-3-carbonitrile], the EC50 was 2.75 µM. `Cc1sc2nc(Cn3nc(C(F)(F)F)cc3Cl)cc(=O)n2c1C1CC1` [compound 116, 7-[[5-chloro-3-(trifluoromethyl)pyrazol-1-yl]methyl]-3-cyclopropyl-2-methyl-thiazolo[3,2-a]pyrimidin-5-one] showed an EC50 of 0.351 µM. With `Cc1sc2nc(Cn3nc(Cl)cc3C(F)(F)F)cc(=O)n2c1C1CC1` [compound 117, 7-[[3-chloro-5-(trifluoromethyl)pyrazol-1-yl]methyl]-3-cyclopropyl-2-methyl-thiazolo[3,2-a]pyrimidin-5-one] the EC50 was 1.03 µM. `Cc1sc2nc(Cn3nc(C(F)(F)F)cc3Cl)cc(=O)n2c1C1CC1C` (stereo not drawn) [compound 118, 7-[[5-chloro-3-(trifluoromethyl)pyrazol-1-yl]methyl]-2-methyl-3-(2-methylcyclopropyl)thiazolo[3,2-a]pyrimidin-5-one] showed an EC50 of 0.169 µM. For `CC(=O)c1c(C)sc2nc(Cn3nc(C(F)(F)F)cc3Cl)cc(=O)n12` [compound 119, 3-acetyl-7-[[5-chloro-3-(trifluoromethyl)pyrazol-1-yl]methyl]-2-methyl-thiazolo[3,2-a]pyrimidin-5-one], the EC50 was 0.325 µM. For `CC(=O)c1c(C)sc2nc(Cn3nc(Cl)cc3C(F)(F)F)cc(=O)n12` [compound 120, 3-acetyl-7-[[3-chloro-5-(trifluoromethyl)pyrazol-1-yl]methyl]-2-methyl-thiazolo[3,2-a]pyrimidin-5-one], the EC50 was 0.995 µM. With `CC1CC1c1c(Cl)sc2nc(Cc3cccc(C(F)(F)F)c3F)cc(=O)n12` (stereo not drawn) [compound 121, 2-chloro-7-[[2-fluoro-3-(trifluoromethyl)phenyl]methyl]-3-(2-methylcyclopropyl)thiazolo[3,2-a]pyrimidin-5-one] the EC50 was 17.6 µM.
